Molecular target: human PKR1 receptors (Homo sapiens (Human), UniProt Q8TCW9)
Experiment: PKR1 antagonist assay: block of PK1-mediated intracellular calcium release (FLIPR Tetra)
Type: cell-based
Conditions: RBL2H3 cells expressing human PKR1; stimulation with PK1 at EC80; calcium fluorescence
Protocol: Prokineticin receptor 1 (PKR1) antagonists may be functionally assessed by measurement of change in intracellular calcium levels induced by Gq mediated increase in inositol triphosphate (IP3) levels. The ability of a compound to block the intracellular release of calcium mediated by PK1 in RBL2H3 cells expressing human PKR1 receptors is determined as a measure of the compound's antagonist activity in vitro.
Approximately 10,000 cells per assay well are seeded in normal culture medium in a 384 well plate (Corning). Twenty-four hours after seeding, the cells are loaded with a calcium sensitive fluorescent dye by replacing the culture medium with assay buffer (1× Hanks buffered saline, 25 mM HEPES, 0.1% w/v fatty acid free BSA (bovine serum albumin), pH 7.4) containing 1 mM probenecid and 1× Calcium 5 Reagent (Molecular Devices). Cells are incubated at 37° C. for 1 hour to allow for dye uptake.
To test for antagonist activity, test compounds at a final concentration range between 0.32 nM-10 μM (diluted in assay buffer) are added to the assay wells and allowed to incubate for 10 minutes prior to stimulation with PK1. After incubation with test compounds the assay plate is placed in a FLIPR Tetra (Molecular Devices) and PK1 (diluted in assay buffer) is added at the determined EC80 concentration (final). Ligand-dependent changes in intracellular calcium levels are determined by measuring changes in fluorescence of the dye at […] following excitation at 485 nm.

human PKR1 receptors, sequence (Q8TCW9 whole entry): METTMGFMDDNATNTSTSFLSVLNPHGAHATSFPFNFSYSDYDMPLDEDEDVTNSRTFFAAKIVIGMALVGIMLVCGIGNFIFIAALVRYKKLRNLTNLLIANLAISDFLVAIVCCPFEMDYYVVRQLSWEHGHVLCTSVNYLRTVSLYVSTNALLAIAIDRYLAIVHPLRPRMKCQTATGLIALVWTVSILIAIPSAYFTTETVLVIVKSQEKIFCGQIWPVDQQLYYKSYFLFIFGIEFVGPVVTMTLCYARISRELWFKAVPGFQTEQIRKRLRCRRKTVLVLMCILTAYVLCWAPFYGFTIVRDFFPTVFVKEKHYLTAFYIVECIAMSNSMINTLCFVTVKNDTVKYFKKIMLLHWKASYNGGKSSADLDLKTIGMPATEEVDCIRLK

Compound	IC50
Cc1ccc(C2CCCN(C(=O)c3ccnc(N(C)C)c3)C2)cc1 (single isomer, unassigned) [Example 50, N,N-Dimethyl-4-{[3-(4-methylphenyl)piperidin-1-yl]carbonyl}pyridin-2-amine]	990 nM
Cn1cc(C(=O)N2CCCC(c3ccc(Cl)cc3C(F)(F)F)C2)c(N)n1 (single isomer, unassigned) [Example 118, 4-({3-[4-Chloro-2-(trifluoromethyl)phenyl]piperidin-1-yl}carbonyl)-1-methyl-1H-pyrazol-3-amine]	> 10000 nM
Cn1cc(C(=O)N2CCCC(c3ccc(Cl)cc3C(F)(F)F)C2)c(N)n1 (single isomer, unassigned) [Example 119, 4-({3-[4-Chloro-2-(trifluoromethyl)phenyl]piperidin-1-yl}carbonyl)-1-methyl-1H-pyrazol-3-amine]	330 nM
CN(C)c1cc(C(=O)N2CCCC(c3ccccc3F)C2)ccn1 (centres unmarked) [Example 1, 4-{[3-(2-Fluorophenyl)piperidin-1-yl]carbonyl}-N,N-dimethylpyridin-2-amine]	1820 nM
CN(C)c1cc(C(=O)N2CCCC(c3ccc(Cl)cc3Cl)C2)ccn1 (centres unmarked) [Example 2, 4-{[3-(2,4-Dichlorophenyl)piperidin-1-yl]carbonyl}-N,N-dimethylpyridin-2-amine]	190 nM
O=C(c1ccnc(C2CC2)c1)N1CCCC(c2ccc(Cl)cc2)C1 (centres unmarked) [Example 3, 4-{[3-(4-Chlorophenyl)piperidin-1-yl]carbonyl}-2-cyclopropylpyridine]	1740 nM
CCc1cc(C(=O)N2CCCC(c3ccc(Cl)cc3C)C2)ccn1 (centres unmarked) [Example 4, 4-{[3-(4-Chloro-2-methylphenyl)piperidin-1-yl]carbonyl}-2-ethylpyridine]	70 nM
Cc1cc(C(=O)N2CCCC(c3ccc(Cl)cc3C)C2)ccn1 (centres unmarked) [Example 5, 4-{[3-(4-Chloro-2-methylphenyl)piperidin-1-yl]carbonyl}-2-methylpyridine]	450 nM
CCc1cc(C(=O)N2CCCC(c3ccc(Cl)cc3C(F)(F)F)C2)ccn1 (centres unmarked) [Example 6, 4-({3-[4-Chloro-2-(trifluoromethyl)phenyl]piperidin-1-yl}carbonyl)-2-ethylpyridine]	280 nM
CN(C)c1cc(C(=O)N2CCCC(c3ccc(Cl)cc3C(F)(F)F)C2)ccn1 (centres unmarked) [Example 7, 4-({3-[4-Chloro-2-(trifluoromethyl)phenyl]piperidin-1-yl}carbonyl)-N,N-dimethylpyridin-2-amine]	100 nM
CNc1cc(C(=O)N2CCCC(c3ccc(C)cc3)C2)ccn1 (centres unmarked) [Example 11, N-Methyl-4-{[3-(4-methylphenyl)piperidin-1-yl]carbonyl}pyridin-2-amine]	290 nM
Cc1ccc(C2CCCN(C(=O)c3ccnc(C)c3)C2)cc1 (centres unmarked) [Example 12, 2-Methyl-4-{[3-(4-methylphenyl)piperidin-1-yl]carbonyl}pyridine]	2800 nM
Cc1cccc(C2CCCN(C(=O)c3ccnc(N(C)C)c3)C2)c1 (centres unmarked) [Example 13, N,N-Dimethyl-4-{[3-(3-methylphenyl)piperidin-1-yl]carbonyl}pyridin-2-amine]	1920 nM
Cc1ccccc1C1CCCN(C(=O)c2ccnc(N(C)C)c2)C1 (centres unmarked) [Example 14, N,N-Dimethyl-4-{[3-(2-methylphenyl)piperidin-1-yl]carbonyl}pyridin-2-amine]	190 nM
CN(C)c1cc(C(=O)N2CCCC(c3ccc(Cl)cc3)C2)ccn1 (centres unmarked) [Example 16, 4-{[3-(4-Chlorophenyl)piperidin-1-yl]carbonyl}-N,N-dimethylpyridin-2-amine]	270 nM
CN(C)c1cc(C(=O)N2CCC[C@@H](c3ccc(Cl)cc3)C2)ccn1 [Example 17, 4-{[(3S)-3-(4-Chlorophenyl)piperidin-1-yl]carbonyl}-N,N-dimethylpyridin-2-amine]	840 nM
CN(C)c1cc(C(=O)N2CCC[C@H](c3ccc(Cl)cc3)C2)ccn1 [Example 18, 4-{[(3R)-3-(4-Chlorophenyl)piperidin-1-yl]carbonyl}-N,N-dimethylpyridin-2-amine]	180 nM
CN(C)c1cc(C(=O)N2CCCC(c3ccc(F)cc3)C2)ccn1 (centres unmarked) [Example 19, 4-{[3-(4-Fluorophenyl)piperidin-1-yl]carbonyl}-N,N-dimethylpyridin-2-amine]	1220 nM
O=C(c1ccnc(N2CCC2)c1)N1CCCC(c2ccc(Cl)cc2)C1 (centres unmarked) [Example 22, 2-(Azetidin-1-yl)-4-{[3-(4-chlorophenyl)piperidin-1-yl]carbonyl}pyridine]	1040 nM
CN(C)c1cc(C(=O)N2CCCC(c3ccc(F)cc3Cl)C2)ccn1 (centres unmarked) [Example 26, 4-{[3-(2-Chloro-4-fluorophenyl)piperidin-1-yl]carbonyl}-N,N-dimethylpyridin-2-amine]	470 nM
Cc1cc(C(=O)N2CCCC(c3ccc(Cl)cc3)C2)cc(C)n1 (centres unmarked) [Example 28, 4-{[3-(4-Chlorophenyl)piperidin-1-yl]carbonyl}-2,6-dimethylpyridine]	1330 nM
O=C(c1ccnc(Cl)c1)N1CCCC(c2ccc(Cl)cc2)C1 (centres unmarked) [Example 29, 2-Chloro-4-{[3-(4-chlorophenyl)piperidin-1-yl]carbonyl}pyridine]	3290 nM
CC(C)c1cc(C(=O)N2CCCC(c3ccc(Cl)cc3)C2)ccn1 (centres unmarked) [Example 30, 4-{[3-(4-Chlorophenyl)piperidin-1-yl]carbonyl}-2-(propan-2-yl)pyridine]	830 nM
CNc1cc(C(=O)N2CCCC(c3ccc(Cl)cc3C)C2)ccn1 (centres unmarked) [Example 31, 4-{[3-(4-Chloro-2-methylphenyl)piperidin-1-yl]carbonyl}-N-methylpyridin-2-amine]	30 nM
COc1cc(C(=O)N2CCCC(c3ccc(Cl)cc3C)C2)ccn1 (centres unmarked) [Example 32, 4-{[3-(4-Chloro-2-methylphenyl)piperidin-1-yl]carbonyl}-2-methoxypyridine]	490 nM
Cc1cc(Cl)ccc1C1CCCN(C(=O)c2ccnc(N3CCC3)c2)C1 (centres unmarked) [Example 33, 2-(Azetidin-1-yl)-4-{[3-(4-chloro-2-methylphenyl)piperidin-1-yl]carbonyl}pyridine]	90 nM

Continued by falling IC50, values first:

IC50	Compound
8820 nM	Cc1ccc(C2CCCN(C(=O)c3ccnc(N4CCCC4)c3)C2)cc1 (centres unmarked) [Example 35, 4-{[3-(4-Methylphenyl)piperidin-1-yl]carbonyl}-2-(pyrrolidin-1-yl)pyridine]
5510 nM	COc1cccc([C@@H]2CCCN(C(=O)c3ccnc(N(C)C)c3)C2)c1 [Example 36, 4-{[(3S)-3-(3-Methoxyphenyl)piperidin-1-yl]carbonyl}-N,N-dimethylpyridin-2-amine]
5270 nM	COc1cc(C(=O)N2CCCC(c3ccc(C)cc3)C2)ccn1 (centres unmarked) [Example 34, 2-Methoxy-4-{[3-(4-methylphenyl)piperidin-1-yl]carbonyl}pyridine]
3270 nM	CC(C)Nc1cc(C(=O)N2CCCC(c3ccc(Cl)cc3)C2)ccn1 (centres unmarked) [Example 8, 4-{[3-(4-Chlorophenyl)piperidin-1-yl]carbonyl}-N-(propan-2-yl)pyridin-2-amine]
1370 nM	COc1cc(C(=O)N2CCCC(c3ccc(Cl)cc3C(F)(F)F)C2)ccn1 (centres unmarked) [Example 9, 4-({3-[4-Chloro-2-(trifluoromethyl)phenyl]piperidin-1-yl}carbonyl)-2-methoxypyridine]
1210 nM	CCc1cc(C(=O)N2CCCC(c3ccc(C)cc3)C2)ccn1 (centres unmarked) [Example 20, 2-Ethyl-4-{[3-(4-methylphenyl)piperidin-1-yl]carbonyl}pyridine]
1200 nM	Cc1ccc(C2CCCN(C(=O)c3ccnc(N4CCC4)c3)C2)cc1 (centres unmarked) [Example 21, 2-(Azetidin-1-yl)-4-{[3-(4-methylphenyl)piperidin-1-yl]carbonyl}pyridine]
1180 nM	CNc1cc(C(=O)N2CCC[C@@H](c3ccc(Cl)cc3C)C2)cnn1 (single isomer, unassigned) [Example 73]
1170 nM	Cc1cc(C(=O)N2CCCC(c3ccc(Cl)cc3C(F)(F)F)C2)ccn1 (centres unmarked) [Example 10, 4-({3-[4-Chloro-2-(trifluoromethyl)phenyl]piperidin-1-yl}carbonyl)-2-methylpyridine]
1140 nM	CN(C)c1cc(C(=O)N2CCCC(c3ccccc3)C2)ccn1 (centres unmarked) [Example 15, N,N-Dimethyl-4-[(3-phenylpiperidin-1-yl)carbonyl]pyridin-2-amine]
960 nM	Cc1ccccc1C1CCCN(C(=O)c2ccnc(N3CCC3)c2)C1 (centres unmarked) [Example 23, 2-(Azetidin-1-yl)-4-{[3-(2-methylphenyl)piperidin-1-yl]carbonyl}pyridine]
530 nM	CN(C)c1cc(C(=O)N2CCCC(c3ccc(Cl)cc3F)C2)ccn1 (centres unmarked) [Example 25, 4-{[3-(4-Chloro-2-fluorophenyl)piperidin-1-yl]carbonyl}-N,N-dimethylpyridin-2-amine]
310 nM	Cc1ccc(C2CCCN(C(=O)c3ccnc(N(C)C)c3)C2)cc1 (single isomer, unassigned) [Example 51, N,N-Dimethyl-4-{[3-(4-methylphenyl)piperidin-1-yl]carbonyl}pyridin-2-amine]
130 nM	CNc1cc(C(=O)N2CCCC(c3ccc(Cl)cc3)C2)ccn1 (centres unmarked) [Example 27, 4-{[3-(4-Chlorophenyl)piperidin-1-yl]carbonyl}-N-methylpyridin-2-amine]
30 nM	Cc1cc(Cl)ccc1C1CCCN(C(=O)c2ccnc(N(C)C)c2)C1 (centres unmarked) [Example 24, 4-{[3-(4-Chloro-2-methylphenyl)piperidin-1-yl]carbonyl}-N,N-dimethylpyridin-2-amine]

From patent publication US9790201B2, “Piperidine and azepine derivatives as prokineticin receptor modulators” (TAKEDA PHARMACEUTICAL COMPANY LIMITED, priority 2013, dated 2017)
